# Measurements as given in patent publication US12668803B2, “Glypican-3-specific modified aptamer and use thereof” (APTAMER SCIENCES INC., priority 2019, dated 2026).
# Experiments:
# [1] = system: Hep3B; assay: Cellular internalization of chemically optimized aptamers (FIG. 17A); type: cell-based; conditions: combi 1 to combi 5, FIG. 17A
# [2] = Serum stability analysis (urea PAGE); type: in vitro ADME, human; conditions: 100% human serum, 37° C., FIG. 28
# Protocol: To examine whether 12-12, combi 5 aptamer, combi 4 and combi 5 modified aptamers bound with three or five gemcitabines are stable in the human serum, serum stability was analyzed. In detail, 10 μL of […] was added to 100% human serum, followed by incubation at 37° C. for 0 hr, 1 hr, 3 hr, 6 hr, 12 hr, and 24 hr. After incubation, 5 μL of […] was added, and distilled water was added to a volume of 250 μL. 250 μL of phenol:chloroform:isoamyl alcohol (25:24:1) was added in the equal volume, followed by stirring. Each sample was centrifuged at 16000×g for 10 min. The supernatant was transferred to a new tube, and completely dried. The resultant was diluted with 5× sample buffer and distilled water, and boiled at 95° C. for 5 min, and cooled. The sample was separated by urea PAGE (Polyacrylamide gel Electrophoresis) at 220 V for 25 min, and then stained with SYBR gold and examined using a Gel Doc™ EZ system.
# [3] = system: Huh-7 cells; assay: Cellular internalization analysis (microscopy, lysotracker/DAPI); type: cell-based
# Protocol: 5 aptamer libraries prepared by truncating the 12-10 aptamer at various lengths [12-12 (35-mer), 12-11 (29-mer), 12-13 (24-mer), 12-14 (23-mer), and 12-15 (18-mer)] were subjected to cellular internalization analysis. In detail, a 6-well plate was prepared, and a round cover glass was placed in the 6-well plate. Huh-7 cells were cultured in the 6-well plate according to the method of Example 1-3. 5 μM of the aptamer stock was mixed with 5×SB18 buffer to prepare the aptamer at a concentration of 4 μM, and heated at 95° C. for 5 min, and then cooled at room temperature for 15 min or more. The next day, the medium was removed from the cultured cells, and a serum-free medium was added thereto, and cultured under conditions of 37° C. and 5% CO2 for 1 hr. The serum-free medium was removed, and then the cells were washed with 2 mL of 1×PBS. KRPH buffer was added, and cultured under conditions of 37° C. and 5% CO2 for 1 hr. 4 μM aptamer was diluted to 25 nM, and then cultured under conditions of 37° C. and 5% CO2 for 1 hr or 4 hr. Washing was repeated three times with 2 mL of 1×PBS. Washing was performed in a shaker at room temperature for 10 min while blocking the light. Thereafter, the cells were fixed by treatment with 4% paraformaldehyde at 4° C. for 10 min. Washing was repeated three times with 2 mL of 1×PBS. A permeabilization solution (0.2% Triton X-100 in 1×PBS) was added, followed by incubation at room temperature for 15 min. Washing was repeated three times with 2 mL of 1×PBS. A blocking solution (3% BSA, 1×PBS) was added, followed by incubation under conditions of 37° C. and 5% CO2 for 20 min. Washing was performed once with 2 mL of 1×PBS. Treatment with a blocking solution containing 150 nM lysotracker was performed, followed by incubation under conditions of 37° C. and 5% CO2 for 1 hr. Washing was repeated three times with 2 mL of 1×PBS, and staining with 4′,6-diamidino-2-phenylindole (DAPI) was performed. The cover glass was carefully removed and […]. […]
# [4] = system: Huh 7 cells; assay: Cell binding analysis of Cy5-labeled aptamers (FACS); type: cell-based; conditions: 25 nM aptamer, 12-10 and truncated aptamers, FIG. 6
# Protocol: The 12-10 aptamer and 5 aptamer libraries prepared by truncating the 12-10 aptamer at various lengths [12-10 (40-mer), 12-12 (35-mer), 12-11 (29-mer), 12-13 (24-mer), 12-14 (23-mer), 12-15 (18-mer)] were subjected to cell binding analysis. Each aptamer sequence was labeled with Cy5 at the 5′ end thereof according to the method of Example 1-1. Huh 7 cells (ATCC, Rockville, MD, USA) were seeded at a density of 2×10^6/mL in a 100 mm^2 culture plate, and cultured using a DMEM medium (Gibco, Grand Island, NY, USA) containing 10% FBS (Gibco, Grand Island, NY, USA) and 1% antibiotics (penicillin/streptomycin) under conditions of 5% CO2 and 37° C. 5 μM of the aptamer stock was mixed with 5×SB18 buffer to prepare the aptamer at a concentration of 4 μM, and heated at 95° C. for 5 min, and then cooled at room temperature for 15 min or more. 4 μM of the aptamer was diluted with KRPH buffer (20 mM HEPES, 5 mM KH2PO4, 1 mM MgSO4, 1 mM CaCl2, 136 mM NaCl, 4.7 mM KCl, pH 7.4) at a concentration of 25 nM. The culture medium was removed from the cultured cells, and 4 mL of phosphate-buffered saline (PBS) was added thereto, followed by washing, and then 4 mL of PBS was removed. 4 mL of cold PBS or warm PBS was added, and cells were scraped using a scraper, and collected in tubes, followed by pipetting. The cells were divided and added to fluorescence-activated cell sorting (FAC) tubes according to the number of samples, followed by centrifugation at 4° C. and 2000 rpm for 4 min. After removing the supernatant, each 500 μL of 25 nM aptamer and control (31-08 (40-mer) aptamer) were added to […] of KRPH buffer, followed by pipetting. The tube was covered with foil to block the light, followed by incubation at 4° C. for 30 min. After incubation, centrifugation was performed at 4° C. and 2000 rpm for 4 min, and the supernatant was removed. 2 mL of cold 1×PBS was added, washed, centrifuged at 4° C. and 2000 rpm for 4 min, and the supernatant was removed. This process was repeated three times. […] Cy5 was measured at […]. […]
# [5] = system: hepatoma specific cells expressing high levels of GPC3 (HepG2, Hep3B); assay: Cellular internalization of combi 6 to combi 10 (FIG. 17B); type: cell-based
# [6] = system: HepG2; assay: Cytotoxicity (CCK-8) of 12-12 G(3); type: cell-based
# Protocol: (§1) In detail, HepG2, Hep3B, and A431 cells (ATCC, Rockville, MD, USA) were each seeded in a 96-well plate at a density of 1×10^4/mL and cultured using a DMEM (Gibco, Grand Island, NY, USA) medium containing 10% FBS (Gibco, Grand Island, NY, USA) and 1% antibiotics (penicillin/streptomycin) under conditions of 5% CO2 and 37° C. The next day, the aptamer stock (100 μM) was mixed with 5×SB18 buffer to prepare the stock at a concentration of 80 μM, and heated at 95° C. for 5 min, and then cooled at room temperature for 15 min or more. The medium was removed from the cultured cells, and 100 μL of a serum-free medium was added thereto, and cultured under conditions of 37° C. and 5% CO2 for 1 hr. The serum-free medium was removed, and then the cells were washed with 100 μL of 1×PBS. 100 μL of KRPH buffer was added, and cultured under conditions of 37° C. and 5% CO2 for 1 hr. The aptamer was diluted with KRPH buffer to 2-fold of the desired concentration, and added to a 96-well plate at 1× concentration, and cultured under conditions of 37° C. and 5% CO2 for 4 hr. After treatment with the aptamer, the KRPH buffer was removed, and then 100 μL of culture medium was added and cultured under conditions of 37° C. and 5% CO2 for 6 days. 6 days later, 10 μL of a CCK-8 kit solution was added to each well, and then cultured under conditions of 37° C. and 5% CO2 for 3 hr. Cell death levels were examined at […] using a microplate reader.
# [7] = system: squamous cell carcinoma cell A431; assay: Cytotoxicity (CCK-8) of 12-12 G(3); type: cell-based
# Protocol: as §1
substance,measurement,setting,value
"Combi 4: SEQ ID NO: 13, chemically optimized 12-12 aptamer (G_{Me}nG_{Me}A_{F}A_{F}nGCGnnG_{F}A_{F}A_{F}nnA_{F}nGYC_{F}C_{F}C_{F}nnCAG_{Me}nCAnCAMC_{F}; 2'-F and 2'-OMe units, modified bases n, Y, M undefined, 3' idT, as printed in the source, key not given here)",Hep3B cellular internalization,[1],excellent cellular internalization
"12-12: SEQ ID NO: 6, 35-mer truncated from 2428-12-10, idT at 3′ end (GNGAANGCGNNGAANNANGNCCCNNCAGNCANCAC; modified base n undefined, 3' idT per name, further chemistry not given here)",half-life in the human serum,[2],6 h
same,cellular internalization,"[3]; 25 nM, truncated aptamers, FIG. 7",most excellent cellular internalization
same,cell binding ability,[4],most excellent cell binding ability
"Combi 8: SEQ ID NO: 17, chemically optimized 12-12 aptamer (G_{Me}nG_{Me}A_{F}A_{F}nGCGnnG_{F}A_{F}A_{Me}nnA_{Me}nWnC_{F}C_{F}C_{F}nnCAG_{Me}nCAnC_{F}A_{Me}C_{F}; 2'-F and 2'-OMe units, modified bases n, W undefined, 3' idT, as printed in the source, key not given here)",cellular internalization,[5],highest cellular internalization
"12-12 G(3) (DNA GNGAANGCGNNGAANNANGNSSSNNCAGNCANCAC; three gemcitabines, BzdU and 3' inverted dT, positions not given here)",cellular internalization over time,"[3]; 1 hr, 2 hr, and 4 hr after the start of internalization, FIG. 11",most excellent cellular internalization
same,cellular internalization,"[3]; vs 12-12 and scrambled 12-12, FIG. 10",most excellent cellular internalization
same,HepG2-killing effects,"[6]; 10 nM to 1 μM, vs 12-12 or 30 nM to 3 μM gemcitabine, FIG. 12",excellent HepG2-killing effects
same,HepG2-killing effects,"[6]; 31.75 nM to 2 μM, vs same concentrations of 12-12 or gemcitabine, FIG. 13",excellent HepG2-killing effects
same,cell-killing effects on A431,"[7]; 10 nM to 1 μM, FIG. 12",no cell-killing effects
same,cell-killing effects on A431,"[7]; 31.75 nM to 2 μM, FIG. 13",no cell-killing effects
"Combi 9: SEQ ID NO: 18, chemically optimized 12-12 aptamer (G_{Me}nG_{Me}A_{F}A_{F}nGCGnnG,A_{F}AnnAnGnC_{F}C_{F}C_{F}nnCAG_{Me}nCAnCrAyCr; 2'-F and 2'-OMe units, modified base n undefined, 3' idT, as printed in the source, key not given here)",cellular internalization,[5],highest cellular internalization
